Data published in patent US20260083865A1, “PROSTATE SPECIFIC MEMBRANE ANTIGEN (PSMA) LIGANDS AND USE THEREOF” (priority 2022, published 2026).
Read-outs that look alike come from different tables or passages of the source. Numbered stars: 1 amine (or outer) side, 2 acyl side, 3 side chain; on linkers, the order of the positions; unused ones are H or OH. Bridge positions count the residues as written; N and C are the ends. Square brackets hold non-standard residues; d marks the D form. Peptide text beside a SMILES is read from it. * marks the point of attachment. DOTA = O=C(O)CN1CCN(CC(=O)O)CCN(CC(=O)*)CCN(CC(=O)O)CC1; Trp(5-Cl) = N[C@@H](Cc1c[nH]c2ccc(Cl)cc12)C(=O)O; Phe(4-Cl) = N[C@@H](Cc1ccc(Cl)cc1)C(=O)O; Ethylenediamine = C(CN[*:2])N[*:1]; X1 = O=C(CC1CCN([*:1])CC1)[*:2]; Cit = NC(=O)NCCC[C@H](N)C(=O)O; NMeL = CN[C@@H](CC(C)C)C(=O)O; Tle = CC(C)(C)[C@H](N)C(=O)O; Aib = CC(C)(N)C(=O)O; Ahx = NCCCCCC(=O)O

Experiments:
[1] = biological target: T1, PSMA-expressing C4-2 cells (Homo sapiens, UniProt Q04609); assay: FACS binding assay (competition with 50 nM PSM-0183); conditions: read-out: pIC50 [C4-2] CAT (converted)
T1 construct: PSMA-expressing C4-2 cells (ATCC, Cat. No. CRL-3314) were cultured in RPMI-1640; host or cells: C4-2 cells
Procedure: In order to determine binding of compounds according to the present invention to PSMA-expressing cells, a FACS binding assay was established.
PSMA-expressing C4-2 cells (ATCC, Cat. No. CRL-3314) were cultured in RPMI-1640 (Pan Biotech, Cat. No. P04-18050) including 10% fetal calf serum (Biochrom) and 100 U/ml penicillin and 100 μg/mL streptomycin (Sigma, Cat. No. P0781). Cells were detached with Accutase (Biolegend, Cat. No. BLD-423201) and washed in FACS buffer (PBS (Sigma, Cat. No. D8537) including 1% fetal calf serum). Cells were diluted in FACS buffer to a final concentration of 500,000 cells per mL. 200 μL of the cell suspension were transferred to a u-shaped non-binding 96-well plate (Greiner Bio-One, Cat. No. 650901) and cells were washed in ice-cold FACS buffer.
For IC50 determination, C4-2 cells were incubated with 50 nM PSM-0183 (Ac-Thr-Aib-Phe[Cys-Lys-Arg-Aib-Asn-Cys]-Tle-Thr-Asp-Ttds-Ttds-AF488N3K-NH2) in the presence of increasing concentrations of test compounds at 4° C. for 1 hour. After two wash steps with ice-cold FACS buffer, cells were analyzed in an Attune NxT flow cytometer. Median fluorescence intensities (MFI) of the FITC/AF488-channel were calculated by Attune NxT software. MFI values were plotted against peptide concentration and four parameter logistic (4PL) curve fitting and IC50/pIC50 calculations were performed using ActivityBase software (IDBS).

[2] = biological target: T2, Fc-fusion protein of human PSMA (hPSMA-Fc) (Homo sapiens, UniProt Q04609); assay: Surface plasmon resonance assay (Biacore T200, single cycle kinetic); format: binding; conditions: hPSMA-Fc, 25° C., read-out: pKD CAT (converted)
T2 construct: purchased Acro Biosystems PSA-H5264
Procedure: Surface plasmon resonance (SPR) studies were performed using a Biacore™ T200 SPR system. Briefly, polarized light is directed towards a gold-labeled sensor surface, and minimum intensity reflected light is detected. The angle of reflected light changes as molecules bind and dissociate.
Fc-fusion protein of human PSMA (hPSMA-Fc, Acro Biosystems, Cat #PSA-H5264) was captured on a Fc-capture chip (Biacore™ CM5 sensor chip coated with ˜300 RU of an Fc-binding peptide). hPSMA-Fc was diluted in Running Buffer (HBST, 0.1% DMSO) to a final concentration of 100 nM and then flushed over the Fc-capture chip to immobilized ˜1000 RUs.
Stock solutions of test compounds were prepared by dissolving each compound in DMSO. DMSO stock solution were diluted 1:1000 in Running Buffer without DMSO. Further sequential dilutions were made with Running Buffer containing 0.1% DMSO. SPR binding analyses were performed in Single Cycle Kinetic (SCK) mode at 25° C. Flow cell coated with the Fc-binding peptide only served as reference flowcell. After each SCK run, hPSMA-Fc was removed with 10 mM glycine buffer, pH 1.5.
In between every three SCK measurements, a blank run with Running Buffer instead of test compound was included to correct for baseline drifts (double blanking method).
Table 5 describes the protocol steps for Fc-fusion target capturing and assessment of the binding kinetics.
For each test compound, SPR raw data in the form of resonance units (RU) were plotted as sensorgrams using the Biacore™ T200 control software. The signal from the blank sensorgram was subtracted from that of the test compound sensorgram (blank corrected). The blank corrected sensorgram was corrected for baseline drift by subtracting the sensorgram of a SCK run without the test compound (running buffer only). The dissociation constant (KD) was calculated from Blank-normalized SPR data using the 1:1 Langmuir binding model from the Biacore™ Insight Evaluation software. The pKD value (negative decadic logarithm of dissociation constant) was calculated using Microsoft Excel.

[3] = pIC50 category of FACS binding, C4-2 cells
[4] = pKD category for PSMA SPR activity assay

T2 sequence (Q04609 44-750 limits assumed): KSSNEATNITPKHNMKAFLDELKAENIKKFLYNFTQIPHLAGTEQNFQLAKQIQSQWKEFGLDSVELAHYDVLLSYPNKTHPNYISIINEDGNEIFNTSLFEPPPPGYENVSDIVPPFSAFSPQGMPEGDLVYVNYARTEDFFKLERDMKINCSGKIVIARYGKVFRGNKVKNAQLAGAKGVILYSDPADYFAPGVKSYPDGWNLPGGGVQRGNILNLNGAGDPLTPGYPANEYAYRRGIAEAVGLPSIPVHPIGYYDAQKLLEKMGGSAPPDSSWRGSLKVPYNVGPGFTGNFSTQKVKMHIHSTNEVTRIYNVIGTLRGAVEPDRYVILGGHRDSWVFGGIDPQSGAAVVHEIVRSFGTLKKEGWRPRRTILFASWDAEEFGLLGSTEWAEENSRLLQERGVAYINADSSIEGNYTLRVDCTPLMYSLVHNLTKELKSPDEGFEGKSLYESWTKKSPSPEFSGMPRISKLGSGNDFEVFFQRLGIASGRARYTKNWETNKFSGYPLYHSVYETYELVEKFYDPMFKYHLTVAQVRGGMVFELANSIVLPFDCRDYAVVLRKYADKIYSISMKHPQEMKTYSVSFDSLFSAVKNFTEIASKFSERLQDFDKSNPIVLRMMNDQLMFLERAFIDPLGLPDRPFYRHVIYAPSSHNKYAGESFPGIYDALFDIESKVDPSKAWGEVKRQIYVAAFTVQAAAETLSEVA
T1 sequence (Q04609 whole entry): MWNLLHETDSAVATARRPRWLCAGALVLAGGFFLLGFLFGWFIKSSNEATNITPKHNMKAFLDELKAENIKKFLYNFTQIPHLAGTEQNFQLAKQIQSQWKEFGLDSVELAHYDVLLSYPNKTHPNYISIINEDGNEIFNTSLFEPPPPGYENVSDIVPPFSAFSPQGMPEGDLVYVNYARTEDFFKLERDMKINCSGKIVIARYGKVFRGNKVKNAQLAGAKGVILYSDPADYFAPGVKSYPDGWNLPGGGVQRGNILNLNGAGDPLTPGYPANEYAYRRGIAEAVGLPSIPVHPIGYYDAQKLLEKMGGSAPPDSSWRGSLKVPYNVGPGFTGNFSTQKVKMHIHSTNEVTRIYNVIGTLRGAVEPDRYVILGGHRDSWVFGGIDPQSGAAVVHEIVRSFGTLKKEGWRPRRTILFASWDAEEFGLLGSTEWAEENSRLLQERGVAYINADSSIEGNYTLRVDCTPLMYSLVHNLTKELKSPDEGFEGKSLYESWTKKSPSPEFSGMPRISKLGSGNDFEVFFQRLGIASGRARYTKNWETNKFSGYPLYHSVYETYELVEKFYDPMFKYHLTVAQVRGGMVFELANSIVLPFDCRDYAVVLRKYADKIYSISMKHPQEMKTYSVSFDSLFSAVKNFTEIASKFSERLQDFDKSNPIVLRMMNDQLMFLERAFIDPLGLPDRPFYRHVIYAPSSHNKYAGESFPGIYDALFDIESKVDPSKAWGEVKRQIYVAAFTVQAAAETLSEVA

Structure (SMILES) | IC50 [1, 3] [nM] | Kd [2, 4] [nM] | IC50 ([1]; FACS binding, PSMA-expressing C4-2 cells, pIC50 category) [nM] | Kd ([2]; PSMA SPR assay, pKD category) [nM]
C[C@@H](O)[C@H](NC(=O)[C@@H](NC(=O)[C@@H]1CSSC[C@H](NC(=O)[C@H](Cc2c[nH]c3ccc(Cl)cc23)NC(=O)C(C)(C)NC(=O)[C@@H](NC(=O)CC2CCN(C(=O)CN3CCN(CC(=O)O)CCN(CC(=O)O)CCN(CC(=O)O)CC3)CC2)[C@@H](C)O)C(=O)N[C@@H](CCCCN)C(=O)N[C@@H](CCCNC(N)=O)C(=O)NC(C)(C)C(=O)N[C@@H](CC(N)=O)C(=O)N1)C(C)(C)C)C(N)=O [PSM-0406, DOTA-Cmp-Thr-Aib-5Clw-[Cys-Lys-Cit-Aib-Asn-Cys]-Tle-Thr-NH2] ({DOTA}-[X1]T[Aib][Trp(5-Cl)]CK[Cit][Aib]NC[Tle]T-NH2; disulfide 5-10) | 1260 to 3160 | > 501 |  | 
CC(C)C[C@@H](C(=O)N[C@H](C(N)=O)[C@@H](C)O)N(C)C(=O)[C@@H]1CSSC[C@H](NC(=O)[C@H](Cc2ccc(Cl)cc2)NC(=O)C(C)(C)NC(=O)[C@@H](NC(=O)CC2CCN(C(=O)CN3CCN(CC(=O)O)CCN(CC(=O)O)CCN(CC(=O)O)CC3)CC2)[C@@H](C)O)C(=O)N[C@@H](CCCCN)C(=O)N[C@@H](CCCNC(=N)N)C(=O)NC(C)(C)C(=O)N[C@@H](CC(N)=O)C(=O)N1 [PSM-0497, DOTA-Cmp-Thr-Aib-Pcf-[Cys-Lys-Arg-Aib-Asn-Cys]-Nml-Thr-NH2] ({DOTA}-[X1]T[Aib][Phe(4-Cl)]CKR[Aib]NC[NMeL]T-NH2; disulfide 5-10) | 200 to 1260 | 126 to 501 |  | 
C[C@@H](O)[C@H](NC(=O)[C@@H](NC(=O)[C@@H]1CSSC[C@H](NC(=O)[C@H](Cc2ccc(Cl)cc2)NC(=O)C(C)(C)NC(=O)CCCCCNC(=O)CN2CCN(CC(=O)O)CCN(CC(=O)O)CCN(CC(=O)O)CC2)C(=O)N[C@@H](CCCCN)C(=O)N[C@@H](CCCNC(=N)N)C(=O)NC(C)(C)C(=O)N[C@@H](CC(N)=O)C(=O)N1)C(C)(C)C)C(N)=O [PSM-0310, DOTA-Ahx-Aib-Pcf-[Cys-Lys-Arg-Aib-Asn-Cys]-Tle-Thr-NH2] ({DOTA-Ahx}-[Aib][Phe(4-Cl)]CKR[Aib]NC[Tle]T-NH2; disulfide 3-8) |  |  | < 200 | < 12.6
CC(=O)NCCCC[C@@H]1NC(=O)[C@@H](NC(=O)[C@H](Cc2ccc(Cl)cc2)NC(=O)C(C)(C)NC(=O)[C@@H](NC(=O)CC2CCN(C(=O)CN3CCN(CC(=O)O)CCN(CC(=O)O)CCN(CC(=O)O)CC3)CC2)[C@@H](C)O)CSSC[C@@H](C(=O)N[C@H](C(=O)N[C@H](C(N)=O)[C@@H](C)O)C(C)(C)C)NC(=O)[C@H](CC(N)=O)NC(=O)C(C)(C)NC(=O)[C@H](CCCNC(=N)N)NC1=O [PSM-0466, DOTA-Cmp-Thr-Aib-Pcf-[Cys-Lys(Ac)-Arg-Aib-Asn-Cys]-Tle-Thr-NH2] ({DOTA}-[X1]T[Aib][Phe(4-Cl)]CK(Ac)R[Aib]NC[Tle]T-NH2; disulfide 5-10) | 200 to 1260 | < 12.6 |  | 
CC(=O)N[C@H](C(=O)NC(C)(C)C(=O)N[C@@H](Cc1ccc(Cl)cc1)C(=O)N[C@H]1CSSC[C@@H](C(=O)N[C@H](C(=O)NCCN)C(C)(C)C)NC(=O)[C@H](CC(N)=O)NC(=O)C(C)(C)NC(=O)[C@H](CCCNC(=N)N)NC(=O)[C@H](CCCCN)NC1=O)[C@@H](C)O [PSM-0393, Ac-Thr-Aib-Pcf-[Cys-Lys-Arg-Aib-Asn-Cys]-Tle-en] (Ac-T[Aib][Phe(4-Cl)]CKR[Aib]NC[Tle]-Ethylenediamine; disulfide 4-9) | < 200 | < 12.6 |  | 
